Source: ChEMBL document CHEMBL5375967 (J Med Chem, 2023)
Values after ≈ are worked out from the molar mass of the structure shown. Active and inactive are the calls of the source. The rule behind the calls is not given here.

What was measured:
[1] = Volume of distribution at steady state in C57BL/6 mouse at 1 mg/kg, iv measured upto 24 hrs by LC-MS/MS analysis; assay type: ADME, organism-based; conditions: in vivo, read-out: Vdss
[2] = MRT in C57BL/6 mouse at 1 mg/kg, iv measured upto 24 hrs by LC-MS/MS analysis; assay type: ADME, organism-based; conditions: in vivo
[3] = Half life in C57BL/6 mouse at 1 mg/kg, iv measured upto 24 hrs by LC-MS/MS analysis; assay type: ADME, organism-based; conditions: in vivo
[4] = Clearance in Wistar rat at 1 mg/kg, iv measured upto 24 hrs by LC-MS/MS analysis; assay type: ADME, organism-based; conditions: in vivo
[5] = MRT in Wistar rat at 1 mg/kg, iv measured upto 24 hrs by LC-MS/MS analysis; assay type: ADME, organism-based; conditions: in vivo
[6] = Half life in Wistar rat at 1 mg/kg, iv measured upto 24 hrs by LC-MS/MS analysis; assay type: ADME, organism-based; conditions: in vivo
[7] = Clearance in dog at 1 mg/kg, iv measured upto 24 hrs by LC-MS/MS analysis; assay type: ADME, organism-based, Canis lupus familiaris; conditions: in vivo
[8] = Volume of distribution at steady state in dog at 1 mg/kg, iv measured upto 24 hrs by LC-MS/MS analysis; assay type: ADME, organism-based, Canis lupus familiaris; conditions: in vivo, read-out: Vdss
[9] = Oral bioavailability in C57BL/6 mouse at 3 mg/kg measured upto 24 hrs by LC-MS/MS analysis; assay type: ADME, organism-based; conditions: in vivo
[10] = Cmax in C57BL/6 mouse at 3 mg/kg, po measured upto 24 hrs by LC-MS/MS analysis; assay type: ADME, organism-based; set-up: time < 24 hrs, dose 3 mg/kg, route po; conditions: in vivo
[11] = Cmax in Wistar rat at 3 mg/kg, po measured upto 24 hrs by LC-MS/MS analysis; assay type: ADME, organism-based; set-up: dose 3 mg/kg, time < 24 hrs, route po; conditions: in vivo
[12] = Metabolic stability in mouse hepatocyte assessed as intrinsic clearance; assay type: ADME, cell-based; conditions: hepatocytes
[13] = Oral bioavailability in Wistar rat at 3 mg/kg measured upto 24 hrs by LC-MS/MS analysis; assay type: ADME, organism-based; conditions: in vivo
[14] = Oral bioavailability in Wistar rat at 30 mg/kg measured upto 24 hrs by LC-MS/MS analysis; assay type: ADME, organism-based; conditions: in vivo
[15] = Cmax in dog at 3 mg/kg, po measured upto 24 hrs by LC-MS/MS analysis; assay type: ADME, organism-based, Canis lupus familiaris; set-up: time < 24 hrs, dose 3 mg/kg, route po; conditions: in vivo
[16] = Metabolic stability in dog hepatocyte assessed as intrinsic clearance; assay type: ADME, cell-based, Canis lupus familiaris; conditions: hepatocytes
[17] = Solubility of compound in SGF at pH […]; assay type: physicochemical
[18] = Solubility of compound in FaSSIF at pH 6.8; assay type: physicochemical
[19] = Drug concentration in blood of arachidonic acid-induced skin inflammation 129S2/SvPasCrl mouse model at 0.03 mg/kg, po measured after 4 hrs; assay type: ADME, organism-based; conditions: read-out: Ct
[20] = Drug concentration in blood of arachidonic acid-induced skin inflammation 129S2/SvPasCrl mouse model at 0.3 mg/kg, po measured after 4 hrs; assay type: ADME, organism-based; conditions: read-out: Ct
[21] = Inhibition of arachidonic acid-stimulated LTB4 release in skin inflammation 129S2/SvPasCrl mouse model at 3 mg/kg, po pretreated with compound for 4 hrs followed by arachidonic acid stimulation and measured after 1 hr; assay type: functional; conditions: time 5 hrs
[22] = Inhibition of neutrophil influx in arachidonic acid-stimulated skin inflammation 129S2/SvPasCrl mouse model assessed as effect on MPO level in skin at 0.03 mg/kg, po pretreated with compound for 4 hrs followed by arachidonic acid stimulation and measured after 1 hr; assay type: functional; conditions: time 5 hrs
[23] = Inhibition of neutrophil influx in arachidonic acid-stimulated skin inflammation 129S2/SvPasCrl mouse model assessed as effect on MPO level in skin at 0.3 mg/kg, po pretreated with compound for 4 hrs followed by arachidonic acid stimulation and measured after 1 hr; assay type: functional; conditions: time 5 hrs
[24] = Inhibition of neutrophil influx in arachidonic acid-stimulated skin inflammation 129S2/SvPasCrl mouse model assessed as effect on MPO level in skin at 3 mg/kg, po pretreated with compound for 4 hrs followed by arachidonic acid stimulation and measured after 1 hr; assay type: functional; conditions: time 5 hrs
[25] = test system: Mus musculus; assay: Antiarthritic activity in KRN passive serum-induced arthritis C57BL/6 mouse model assessed as reduction in paw swelling at 0.1 to 10 mg/kg, po bid measured on day 7 at 2 hrs after first dose and 14 hrs after second dose; assay type: functional, organism-based; conditions: dose 0.1-10 mg/kg, time 7.0 day
[26] = test system: Mus musculus; assay: Antiarthritic activity in KRN passive serum-induced arthritis C57BL/6 mouse model assessed as reduction in cellularity at 0.1 to 10 mg/kg, po bid measured on day 7 at 2 hrs after first dose and 14 hrs after second dose; assay type: functional, organism-based; conditions: dose 0.1-10 mg/kg, time 7.0 day
[27] = test system: Mus musculus; assay: Antiarthritic activity in KRN passive serum-induced arthritis C57BL/6 mouse model assessed as reduction in joint damage at 0.1 to 10 mg/kg, po bid measured on day 7 at 2 hrs after first dose and 14 hrs after second dose; assay type: functional, organism-based; conditions: dose 0.1-10 mg/kg, time 7.0 day
[28] = test system: Mus musculus; assay: Antiarthritic activity in KRN passive serum-induced arthritis C57BL/6 mouse model assessed as reduction in macrophage numbers at 0.1 to 10 mg/kg, po bid measured on day 7 at 2 hrs after first dose and 14 hrs after second dose; assay type: functional, organism-based; conditions: dose 0.1-10 mg/kg, time 7.0 day
[29] = test system: Mus musculus; assay: Antiarthritic activity in KRN passive serum-induced arthritis C57BL/6 mouse model assessed as reduction in tissue destruction at 0.1 to 10 mg/kg, po bid measured on day 7 at 2 hrs after first dose and 14 hrs after second dose; assay type: functional, organism-based; conditions: dose 0.1-10 mg/kg, time 7.0 day
[30] = target: T1, Voltage-gated inwardly rectifying potassium channel KCNH2 (Homo sapiens, UniProt Q12809)
[31] = target: T1, Voltage-gated inwardly rectifying potassium channel KCNH2; remark: listed apart in the source
[32] = in vivo; conditions: Sprague-Dawley, rat, iv, 1 mg/kg
[33] = in vivo; conditions: Sprague-Dawley, rat, iv, 1 mg/kg; remark: listed apart in the source
[34] = in vivo; conditions: Sprague-Dawley, rat, iv, 1 mg/kg; remark: listed apart in the source
[35] = in vivo; conditions: Sprague-Dawley, rat, iv, 1 mg/kg; remark: listed apart in the source
[36] = in vivo; conditions: C57BL/6, mouse, in vivo, po, 10 mg/kg
[37] = in vivo; conditions: C57BL/6, mouse, in vivo, po, 10 mg/kg; remark: listed apart in the source
[38] = physchem; conditions: octanol/water, pH 7.4
[39] = physchem; conditions: buffer, pH 6.8
[40] = in vitro; conditions: dog, MDCK
[41] = in vitro; conditions: mouse, liver microsomes
[42] = in vitro; conditions: rat, liver microsomes
[43] = in vitro; conditions: human, liver microsomes
[44] = test system: Leukotriene A4 hydrolase (Homo sapiens); assay: Inhibition of LTB4 in calcium ionophore A23187-stimulated human PBMC cells at 1 uM pretreated with compound for 15 mins followed by calcium ionophore A23187 induction and measured after 2 hrs by LC-MS/MS analysis; conditions: time 135.0 min

T1 sequence (Q12809 whole entry): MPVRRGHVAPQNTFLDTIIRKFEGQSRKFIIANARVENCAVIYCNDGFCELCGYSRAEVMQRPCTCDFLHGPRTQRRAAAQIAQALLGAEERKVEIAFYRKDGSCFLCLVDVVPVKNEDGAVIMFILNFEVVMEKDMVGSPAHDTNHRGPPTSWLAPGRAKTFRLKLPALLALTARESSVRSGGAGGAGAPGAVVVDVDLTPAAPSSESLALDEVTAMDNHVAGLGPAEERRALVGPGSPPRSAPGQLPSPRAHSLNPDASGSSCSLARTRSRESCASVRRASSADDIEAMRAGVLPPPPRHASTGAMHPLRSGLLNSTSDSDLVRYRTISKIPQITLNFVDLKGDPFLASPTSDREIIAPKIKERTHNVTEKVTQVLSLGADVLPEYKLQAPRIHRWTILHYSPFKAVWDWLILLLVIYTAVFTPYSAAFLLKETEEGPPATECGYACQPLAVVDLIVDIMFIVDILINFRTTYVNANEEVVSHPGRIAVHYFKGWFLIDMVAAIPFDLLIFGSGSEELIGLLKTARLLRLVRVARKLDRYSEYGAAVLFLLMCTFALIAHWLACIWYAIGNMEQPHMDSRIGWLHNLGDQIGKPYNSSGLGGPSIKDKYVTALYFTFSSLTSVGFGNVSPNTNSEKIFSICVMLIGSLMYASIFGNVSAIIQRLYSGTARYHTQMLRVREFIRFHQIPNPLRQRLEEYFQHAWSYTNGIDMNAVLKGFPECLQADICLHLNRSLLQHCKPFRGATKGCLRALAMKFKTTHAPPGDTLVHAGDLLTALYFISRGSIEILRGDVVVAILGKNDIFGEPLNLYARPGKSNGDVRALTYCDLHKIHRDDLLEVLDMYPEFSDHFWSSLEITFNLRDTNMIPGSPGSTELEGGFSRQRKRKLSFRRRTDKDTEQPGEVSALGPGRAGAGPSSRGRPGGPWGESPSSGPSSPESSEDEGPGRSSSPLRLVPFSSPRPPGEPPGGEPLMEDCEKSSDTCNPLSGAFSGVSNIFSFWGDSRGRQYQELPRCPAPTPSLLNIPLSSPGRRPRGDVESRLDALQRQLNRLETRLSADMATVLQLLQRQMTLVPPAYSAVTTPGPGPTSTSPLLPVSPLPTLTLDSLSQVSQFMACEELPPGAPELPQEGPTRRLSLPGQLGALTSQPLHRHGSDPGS

N[C@H](CO)Cn1ccc(-c2ccc(Oc3ncc(-c4cc[nH]n4)cc3F)cc2)n1
Vd [1]: 1.6 L/kg | MRT [2]: 3.3 h | half-life [3]: 3.4 h | clearance [4]: 7.3 mL/min/kg | MRT [5]: 16 h | half-life [6]: 13 h | clearance [7]: 2.2 mL/min/kg | Vd [8]: 7 L/kg | bioavailability [9]: 32% | Cmax [10]: 443 nM | Cmax [11]: 351 nM | CLH [12]: 6 µL/min/mg | bioavailability [13]: 39% | bioavailability [14]: 46% | Cmax [15]: 1180 nM | CLH [16]: 6 µL/min/mg | solubility [17]: 27 µg/mL (≈ 68.5 µM) | solubility [18]: > 2000 µg/mL | concentration at 4 h [19]: 79 nM | concentration at 4 h [20]: 108 nM | inhibition in vivo at 3 mg/kg [21]: 97% | inhibition in vivo at 0.03 mg/kg [22]: 52% | inhibition in vivo at 0.3 mg/kg [23]: 81% | inhibition in vivo at 3 mg/kg [24]: 96% | Activity [25]: Active | Activity [26]: Active | Activity [27]: Active | Activity [28]: Active | Activity [29]: Active | IC50 [30]: > 30 µM | IC50 [31]: > 30 µM | clearance [32]: 20 mL/min/kg | Vd [33]: 5.5 L/kg | MRT [34]: 4.6 h | Cmax [35]: 298 nM | concentration at 2 h [36]: 2600 nM | concentration at 24 h [37]: 218 nM | logD [38]: 2 | solubility [39]: 180 µM (≈ 71 µg/mL) | Papp A→B [40]: 12 ×10⁻⁶ cm/s | microsomal CLint [41]: 90 µL/min/mg | microsomal CLint [42]: 179 µL/min/mg | microsomal CLint [43]: < 25 µL/min/mg | inhibition [44]: 100%
